Reference: patent US12129475B2, “Glycoalkaloid metabolism enyzymes (GAMES) and uses thereof” (priority 2017, dated 2024)

Key:
potato GAME25 = experiment: In vitro assay of recombinant potato GAME25 (Sf9 microsomes, NAD+); type: biochemical, Solanum tuberosum; details: 100 μM substrate, NAD+ 150 μM, pH 7.4, 37° C., 4 hrs; LC-MS
Description: (§1) For enzyme assay experiments, an additional MS-MS analysis with a collision energy ramp from 20 to 50 eV was performed to identify the structures of the enzymatic reaction products. The solanid-4-en-3-one product was identified based on the comparison of its retention time and MS-MS spectrum to those measured for its corresponding standard. Another three products (tomatid-4-en-3-one, solasod-4-en-3-one and diosgen-4-en-3-one) were putatively assigned as follows: first, elemental composition based on accurate masses and the isotopic pattern was calculated using the MassLynx software. Then the MS-MS fragmentation pattern was analyzed, and the fragments were assigned applying the fragmentation rules for steroid-based compounds.
(§2) Each expression vector construct was co-transfected with the ProGreen GFP linearized baculovirus DNA (AB vector) to generate the recombinant viruses in Spodoptera frugiperda (Sf9) insect cells. Infection efficiency was monitored by fluorescence of recombinant GFP viruses infected cells. Sf9 cells were grown in ESF921, protein free culture medium (Expression Systems). Three days post-infection cells were collected and washed twice in PBS. Microsomal fractions were isolated by suspending the cell pellet in 20 mM potassium phosphate buffer pH 7.25, 20% (v/v) glycerol, 1 mM EDTA and 1 mM DTT. The resuspended cells were sonicated, and the cell debris was removed by centrifugation at 10,000×g for 15 min. The supernatant was further centrifuged at 100,000×g for 60 min. The pellet containing the microsomal fractions was homogenized in lysis buffer. GAME25 was expressed with a myc-tag at the C-terminus. The isolated microsomal fractions were analyzed by SDS-PAGE and immune-blot with c-myc antibodies (A2S Technologies Ltd.).
(§3) The steroidal alkaloid aglycones dehydrotomatidine, solanidine and solasodine as well as their glycosylated forms (i.e. SGAs) α-tomatine, α-solanine, α-chaconine and α-solamargine were used as substrates for GAME25 enzyme assays. In vitro assays for the tomato and potato recombinant GAME25 enzymes were performed as follows: Briefly, microsomal fractions of Sf9 cells expressing tomato or potato GAME25 proteins (0.2 mg total protein was used per reaction) were separately incubated in sodium phosphate buffer (pH 7.4) with 100 μM of each individual substrate (details are mentioned above), DTT (5 mM) and NAD^+ (150 μM) at 37° C. for 4 hrs. The reactions were stopped by addition of 300 μl of 80% methanol and 0.1% formic acid, followed by brief vortex and sonication for 15 min. Finally, the extracts were centrifuged for 15 min at 14,000×g, filtered through 0.22 μm filters, and analyzed by LC-MS (see Plant extracts preparation and targeted profiling of steroidal metabolites section above). Sf9 cells (without the baculovirus vector) microsomes were used in control enzyme reactions.

tomato GAME25 [1] = experiment: In vitro assay of recombinant tomato GAME25 (Sf9 microsomes, NAD+); type: biochemical, Solanum lycopersicum; details: 100 μM substrate, NAD+ 150 μM, pH 7.4, 37° C., 4 hrs; LC-MS
Description: as §1, §2, §3

plant cells = details: cited from earlier work
SlGAME31 = experiment: Enzymatic activity assay of recombinant SlGAME31 (hydroxylation of SA/SGAs); type: biochemical, Solanum lycopersicum
Description: (§4) GAME31 was amplified from cDNA (SEQ ID NO: 17) and cloned into pET28 vector by restriction free (RF) cloning as described previously (Unger et al., 2010, J Struct Biol. 172:34-44).
(§5) The resulting plasmids were verified by sequencing and transformed to E. coli BL21 DE3. For isolation of the GAME31-His tagged enzymes, fresh overnight cultures were diluted 1:100 in 1000 ml of LB medium (Formedium) with 50 μg/ml kanamycin and incubated at 37° C. and 250 rpm until an A600 nm of 0.5 was reached. Subsequently, for induction of expression of the recombinant proteins, IPTG was added to a final concentration of […] and the incubation was continued overnight at 16° C. and 250 rpm. Then cells were harvested by centrifugation at 10,000×g and bacteria were lysed by sonication in a buffer (pH 7.4) containing 0.02 M NaH2PO4 0.02 M, 0.5 M NaCl, and SIGMAFAST protease inhibitor tablets (Sigma-Aldrich) and benzonase nuclease (Sigma-Aldrich) according to manufacturer's instructions. Lysed cultures were centrifuged, and the soluble fraction was purified by nickel affinity chromatography which was operated with an AKTA liquid chromatography system (AKTA avant, GE Healthcare) according to the manufacturer's instructions. Proteins were stored at −80° C. until further analysis.
All the SA/SGAs substrates were prepared at a concentration of 1 mg/ml, dissolved in methanol, except dehydrotomatine that was prepared in DMSO. The enzymatic activity was performed according to Kawai et al. (2014) Evolution and diversity of the 2-oxoglutarate-dependent dioxygenase superfamily in plants. Plant J. 78: 328-43. Briefly, the standard full reaction (100 μL) consisted of 10 mM L-ascorbic acid, 10 mM α-ketoglutaric acid, 500 μM FeSO4, 20 μM substrate, 50 mM potassium phosphate buffer (pH 7.5) and purified enzyme. All the components, except the enzyme, were pre-incubated for 10 min at 30° C., after which the reaction was started by addition of the enzyme. After incubation at 30° C. for 1 h, the reaction was stopped by freezing in liquid nitrogen Finally, the reaction was mixed with 300 μL methanol, extracted and analyzed by UPLC-qTOF-MS as described above.

tomato GAME25 [2] = experiment: In vitro assay of purified recombinant tomato GAME25 expressed in E. coli; type: biochemical, Solanum lycopersicum; details: purified enzyme (5 μg), NAD+ cofactor
Description: as §1
GAME25 and GAME35 genes were cloned into pET28 vector separately and expressed in E. coli BL21 (DE3). Bacterial cells were grown in LB medium at 37° C. When cultures reached A600=0.6, protein expression was induced with 200 μM of isopropyl-1-thio-β-d-galactopyranoside (IPTG) at 15° C. for 24 h. Bacterial cells were lysed by sonication in 50 mM Tris-HCl pH 7.5, 500 mM NaCl, 1 mM PMSF and protease inhibitor cocktail (Calbiochem). An aliquot of whole cell extract was kept for further analysis. […] The whole cell extract and the eluted fractions were analyzed by SDS-PAGE staining with InstatBlue and by Western blot with HRP conjugated anti-His antibodies (Sigma). […]

GAME35 = GAME35 enzyme assay; type: biochemical, tomato; details: 150 μM substrate, NADH or NADPH, 30° C., 3 hrs
Description: GAME25 and GAME35 genes were cloned into pET28 vector separately and expressed in E. coli BL21 (DE3). Bacterial cells were grown in LB medium at 37° C. When cultures reached A600=0.6, protein expression was induced with 200 μM of isopropyl-1-thio-β-d-galactopyranoside (IPTG) at 15° C. for 24 h. Bacterial cells were lysed by sonication in 50 mM Tris-HCl pH 7.5, 500 mM NaCl, 1 mM PMSF and protease inhibitor cocktail (Calbiochem). An aliquot of whole cell extract was kept for further analysis. Soluble protein was purified using Ni-NTA agarose beads (Adar Biotech) and eluted with 500 mM imidazole in buffer containing 50 mM NaH2PO4 pH-7.5 and 300 mM NaCl. The whole cell extract and the eluted fractions were analyzed by SDS-PAGE staining with InstatBlue and by Western blot with HRP conjugated anti-His antibodies (Sigma).
Purified GAME35 protein (5 μg) was incubated with solanid-4-en-3-one substrate (150 μM), DTT (1 mM), NADH or NADPH (500 μM) in sodium phosphate buffer (pH 7.4) at 30° C. for 3 hrs. The reactions were stopped by addition of 250 μl of 80% methanol and 0.1% formic acid, and followed by brief vortex and sonication for 15 min. Finally, the extracts were centrifuged for 10 min at 13,000×g and filtered through 0.22 μm filters, and analyzed by LC-MS, as described in the section above (plant extracts preparation and targeted profiling of steroidal metabolites). […]

SmGAME31 = experiment: Enzymatic activity assay of recombinant SmGAME31 (hydroxylation of SA/SGAs); type: biochemical, Solanum melongena; details: full reaction, 20 μM substrate, 30° C., 1 h
Description: as §4
as §5, with “Lysed cultures were centrifuged, and the soluble fraction was purified by nickel affinity chromatography which was operated with an AKTA liquid chromatography system (AKTA avant, GE Healthcare) according to the manufacturer's instructions. Proteins were stored at −80° C. until further analysis.” left out
All the SA/SGAs substrates were prepared at a concentration of 1 mg/ml, dissolved in methanol, except dehydrotomatine that was prepared in DMSO. […] After incubation at 30° C. for 1 h, the reaction was stopped by freezing in liquid nitrogen Finally, the reaction was mixed with 300 μL methanol, extracted and analyzed by UPLC-qTOF-MS as described above.

animals and humans = details: studies in animal models; cited from earlier work
[3] = full reaction: ketoglutaric acid, ascorbic acid, FeSO4, 20 μM substrate, 30° C., 1 h

Molecule | activity with substrate / product formed (potato GAME25) | activity with substrate / product formed (tomato GAME25 [1]) | hydroxylation of substrate (SlGAME31; [3]) | other results
CC(C)CCC[C@@H](C)[C@H]1CC[C@H]2[C@@H]3CC=C4C[C@@H](O)CC[C@]4(C)[C@H]3CC[C@]12C [cholesterol] | not reactive | not reactive | – | –
C[C@H]1CC[C@]2(NC1)O[C@H]1C[C@H]3[C@@H]4CC=C5C[C@@H](O)CC[C@]5(C)[C@H]4CC[C@]3(C)[C@H]1[C@@H]2C [dehydrotomatidine] | tomatid-4-en-3-one | tomatid-4-en-3-one | – | toxicity to plant cells (plant cells): highly toxic
C[C@H]1CC[C@]2(NC1)O[C@H]1C[C@H]3[C@@H]4CC=C5C[C@@H](O[C@@H]6O[C@H](CO)[C@H](O[C@@H]7O[C@H](CO)[C@@H](O)[C@H](O[C@@H]8OC[C@@H](O)[C@H](O)[C@H]8O)[C@H]7O[C@@H]7O[C@H](CO)[C@@H](O)[C@H](O)[C@H]7O)[C@H](O)[C@H]6O)CC[C@]5(C)[C@H]4CC[C@]3(C)[C@H]1[C@@H]2C [dehydrotomatine] | no activity | no activity | did perform hydroxylation | –
C[C@@H]1CC[C@@]2(OC1)O[C@H]1C[C@H]3[C@@H]4CC=C5C[C@@H](O)CC[C@]5(C)[C@H]4CC[C@]3(C)[C@H]1[C@@H]2C [diosgenin] | – | – | – | product formed from substrate (tomato GAME25 [2]): diosgen-4-en-3-one
C[C@H]1CC[C@@H]2[C@@H](C)C3C(CC4C5CCC6=CC(=O)CCC6(C)C5CCC43C)N2C1 (stereo partly shown) [solanid-4-en-3-one] | – | – | – | activity with substrate (GAME35): did not react
C[C@H]1CC[C@@H]2[C@@H](C)[C@H]3[C@H](C[C@H]4[C@@H]5CC=C6C[C@@H](O)CC[C@]6(C)[C@H]5CC[C@]34C)N2C1 [solanidine] | solanid-4-en-3-one | solanid-4-en-3-one | – | product formed from substrate (tomato GAME25 [2]): solanid-4-en-3-one
C[C@@H]1CC[C@@]2(NC1)O[C@H]1C[C@H]3[C@@H]4CC=C5C[C@@H](O)CC[C@]5(C)[C@H]4CC[C@]3(C)[C@H]1[C@@H]2C [solasodine] | solasod-4-en-3-one | solasod-4-en-3-one | – | –
C[C@H]1CC[C@]2(NC1)O[C@H]1C[C@H]3[C@@H]4CC[C@H]5C[C@@H](O)CC[C@]5(C)[C@H]4CC[C@]3(C)[C@H]1[C@@H]2C [tomatidine] | – | – | did not show activity | hydroxylation of substrate (SmGAME31): did not hydroxylate; toxicity to plant cells (plant cells): highly toxic
C[C@H]1CC[C@@H]2[C@@H](C)[C@H]3[C@H](C[C@H]4[C@@H]5CC=C6C[C@@H](O[C@@H]7O[C@H](CO)[C@H](O[C@@H]8O[C@@H](C)[C@H](O)[C@@H](O)[C@H]8O)[C@H](O)[C@@H]7O[C@@H]7O[C@@H](C)[C@@H](O)[C@@H](O)[C@H]7O)CC[C@]6(C)[C@H]5CC[C@]34C)N2C1 [α-chaconine] | no activity | no activity | – | –
C[C@@H]1CC[C@@]2(NC1)O[C@H]1C[C@H]3[C@@H]4CC=C5C[C@@H](O[C@@H]6O[C@H](CO)[C@@H](O[C@@H]7O[C@@H](C)[C@H](O)[C@@H](O)[C@H]7O)[C@H](O)[C@H]6O[C@@H]6O[C@@H](C)[C@H](O)[C@@H](O)[C@H]6O)CC[C@]5(C)[C@H]4CC[C@]3(C)[C@H]1[C@@H]2C [α-solamargine] | no activity | no activity | generating hydroxysolamargine | hydroxylation of substrate (SmGAME31): performed hydroxylation
C[C@H]1CC[C@@H]2[C@@H](C)[C@H]3[C@H](C[C@H]4[C@@H]5CC=C6C[C@@H](O[C@@H]7O[C@H](CO)[C@H](O)[C@H](O[C@@H]8O[C@H](CO)[C@@H](O)[C@H](O)[C@H]8O)[C@H]7O[C@@H]7O[C@@H](C)[C@H](O)[C@@H](O)[C@H]7O)CC[C@]6(C)[C@H]5CC[C@]34C)N2C1 [α-solanine] | no activity | no activity | – | –
C[C@H]1CC[C@]2(NC1)O[C@H]1C[C@H]3[C@@H]4CC[C@H]5C[C@@H](O[C@@H]6O[C@H](CO)[C@H](O[C@@H]7O[C@H](CO)[C@@H](O)[C@H](O[C@@H]8OC[C@@H](O)[C@H](O)[C@H]8O)[C@H]7O[C@@H]7O[C@H](CO)[C@@H](O)[C@H](O)[C@H]7O)[C@H](O)[C@H]6O)CC[C@]5(C)[C@H]4CC[C@]3(C)[C@H]1[C@@H]2C [α-tomatine] | no activity | no activity | forming hydroxytomatine | toxicity to animals and humans compared to SGAs possessing the C-5,6 double bond (e.g. α-chaconine and α-solanine) (animals and humans): much less toxic; hydroxylation of substrate (SlGAME31; absence of iron): minor amounts of hydroxytomatine were still generated; hydroxylation of substrate (SlGAME31; removal of either cofactor (ketoglutaric or ascorbic acid)): lack of activity
cholestenol | not reactive | not reactive | – | –
